# Experimental data taken from patent publication US20240383906A1, “5-SUBSTITUTED PYRIDINE-2(1H)-KETONE COMPOUND AND USE THEREOF” (JIANGSU KANION PHARMACEUTICAL CO., LTD., priority 2021, published 2024).
# Tests used:
# [1] = test system: Capan-2 cells; assay: Capan-2 cell anti-proliferative activity test; format: cell-based; details: Homo sapiens, Capan-2, 120 h; 5 days, CellTiter-Glo
# Description: Capan-2 cells were provided by Wuhan Heyan Biomedical Technology Co., Ltd., and CellTiter-Glo was purchased from Promega.
# Capan-2 cells were seeded in a white 96-well plate, with 80 μL of cell suspension per well, each containing 5,000 Capan-2 cells. The cell plate was placed in a carbon dioxide incubator for overnight culture.
# The test compounds were 3-fold diluted with a multi-channel pipette to the 9th concentration, i.e., diluted from 200 μM to 30 nM, and duplicate experiment was set. 78 μL of culture medium was added to an intermediate plate, and then 2 μL of gradient diluted compound per well was transferred to the intermediate plate according to the corresponding position. After mixing well, the compound was transferred to the cell plate at 20 μL per well. The cell plate was placed in a carbon dioxide incubator and cultured for 5 days. Another cell plate was prepared, and the signal value was read on the day of drug administration to serve as the maximum value (Max value in the equation below) for data analysis. 25 μL of cell viability chemiluminescence detection reagent was added to each well of this cell plate, and it was incubated at room temperature for 10 minutes to stabilize the luminescent signal. A multimode microplate reader was used for reading.
# After the cell plate was cultured for 5 days, 25 μL of Promega CellTiter-Glo reagent was added to each well of the cell plate, and it was incubated at room temperature for 10 minutes to stabilize the luminescent signal. A multimode microplate reader was used for reading.
# The IC50 value could be obtained through curve fitting, and the results of the inhibitory activity of the compounds of the present disclosure on the proliferation of Capan-2 cells are shown in Table 11.
# [2] = Pharmacokinetic evaluation in mice; format: in vivo; details: male CD-1 mice
# Description: • CD-1 mice (male, 7 to 9 weeks old, Shanghai SLAC)
# The pharmacokinetic characteristics of the compound in rodents were tested using a standard protocol after intravenous injection (IV) and oral (PO) administration. In the experiment, mice were given a single intravenous injection and oral administration. The solvent for the intravenous injection was water. The solvent for oral administration was 0.5% hydroxypropyl methylcellulose. This project involved four male CD-1 mice. Two of the mice were administered a dose of 0.5 mg/kg via intravenous injection. Plasma samples were collected at 0 hours (before administration) and at 0.083, 0.25, 0.5, 1, 2, 4, 8, and 24 hours after administration. The other two mice were administered a dose of 2.5 mg/kg via oral gavage. Plasma samples were collected at 0 h (before administration) and at 0.25, 0.5, 1, 2, 4, 8, and 24 hours after administration. Whole blood samples were collected within 24 hours, centrifuged at 3000 g for 15 minutes, and the supernatant was separated to obtain plasma samples. Four times the volume of acetonitrile solution containing an internal standard was added to precipitate the protein. After centrifugation, the supernatant was collected, an equal volume of water was added, and it was centrifuged again to collect the supernatant for sampling. The plasma concentration was quantitatively analyzed by LC-MS/MS analysis method, and the pharmacokinetic parameters were calculated, such as peak concentration (Cmax), clearance rate (CL), half-life (T1/2), volume of distribution at steady state (Vdss), area under drug-time curve (AUC0-last), bioavailability (F).
# [3] = Toxicological evaluation (with toxicokinetics) of rats administered for 21 consecutive days; details: SD, rat, in vivo, po
# Description: • SD rats (male and female, 7 to 8 weeks old, Zhejiang Vital River Laboratory Animal Technology Co., Ltd.).
# • In this experiment, SD rats were administered orally once a day with a test substance, a candidate drug for treating cancer, for 21 days to detect its potential toxicity. At the same time, the toxicokinetic (TK) characteristics of the compound in the animals were examined.
# 126 rats (63 per gender) were divided into 6 groups. In the main test administration groups, each group had 5 males and 5 females. In the TK test control group, there were 3 males and 3 females. In the administration groups, each group had 6 males and 6 females. The compound was administered once a day at doses of 1, 3, 10, 20 milligrams per kilogram per day (mg/kg/day). The control group was only given the solvent. The volume of administration was 10 mL/kg. At the start of administration, the animals were 7 to 8 weeks old, with male weights ranging from 251.11 to 308.11 grams, and female weights from 181.53 to 219.03 grams.
# The evaluation items include mortality (moribund/death), clinical symptoms, body weight, food consumption, clinical pathology (hematology, serum biochemistry, coagulation), gross (necropsy) evaluation, organ weights, histopathological evaluation, and toxicokinetics. The toxicokinetic parameters include peak concentration (Cmax), time to maximum drug concentration (Tmax), and area under the drug-time curve (AUC0-last).
# [4] = female, 1 mg/kg/day, female, oral 1 mg/kg/day, Day 1
# [5] = female, 1 mg/kg/day, female, oral 1 mg/kg/day, Day 21
# [6] = female, 3 mg/kg/day, female, oral 3 mg/kg/day, Day 1
# [7] = female, 3 mg/kg/day, female, oral 3 mg/kg/day, Day 21
# [8] = female, 10 mg/kg/day, female, oral 10 mg/kg/day, Day 1
# [9] = female, 10 mg/kg/day, female, oral 10 mg/kg/day, Day 21
# [10] = female, 20 mg/kg/day, female, oral 20 mg/kg/day, Day 1
# [11] = female, 20 mg/kg/day, female, oral 20 mg/kg/day, Day 21
# [12] = male, 1 mg/kg/day, male, oral 1 mg/kg/day, Day 1
# [13] = male, 1 mg/kg/day, male, oral 1 mg/kg/day, Day 21
# [14] = male, 3 mg/kg/day, male, oral 3 mg/kg/day, Day 1
# [15] = male, 3 mg/kg/day, male, oral 3 mg/kg/day, Day 21
# [16] = male, 10 mg/kg/day, male, oral 10 mg/kg/day, Day 1
# [17] = male, 10 mg/kg/day, male, oral 10 mg/kg/day, Day 21
# [18] = male, 20 mg/kg/day, male, oral 20 mg/kg/day, Day 1
# [19] = male, 20 mg/kg/day, male, oral 20 mg/kg/day, Day 21
structure (smiles),measurement,setting,value
Cn1cc(-c2cnc(CNc3nccn4c(-c5cc(F)cc(F)c5)cnc34)cn2)ccc1=O [Compound 2],IC50,[1],6.07 nM
same,F,"[2]; IV 0.5 mg/kg, PO 2.5 mg/kg",29.4%
same,clearance,"[2]; mouse, plasma, IV 0.5 mg/kg",5.37 mL/min/kg
same,half-life,"[2]; mouse, plasma, IV 0.5 mg/kg, read-out: T1/2 (IV) (converted)",5.99 h
same,Vd,"[2]; mouse, plasma, IV 0.5 mg/kg, read-out: Vdss",0.568 L/kg
same,AUC(0-t),"[2]; mouse, plasma, PO 2.5 mg/kg, read-out: AUC0-last (PO)",20.5 µM·h
same,Cmax,"[2]; mouse, plasma",1.76 µM
same,Cmax,[3]; [4],1.02 µM
same,Tmax,[3]; [4],4 h
same,AUC(0-t),"[3]; female, 1 mg/kg/day, female, oral 1 mg/kg/day, Day 1, read-out: AUC0-24 h",14.5 µM·h
same,Cmax,[3]; [5],1.58 µM
same,Tmax,[3]; [5],8 h
same,AUC(0-t),"[3]; female, 1 mg/kg/day, female, oral 1 mg/kg/day, Day 21, read-out: AUC0-24 h",25.6 µM·h
same,Cmax,[3]; [6],2.27 µM
same,Tmax,[3]; [6],8 h
same,AUC(0-t),"[3]; female, 3 mg/kg/day, female, oral 3 mg/kg/day, Day 1, read-out: AUC0-24 h",33.2 µM·h
same,Cmax,[3]; [7],4.18 µM
same,Tmax,[3]; [7],8 h
same,AUC(0-t),"[3]; female, 3 mg/kg/day, female, oral 3 mg/kg/day, Day 21, read-out: AUC0-24 h",63.8 µM·h
same,Cmax,[3]; [8],3.93 µM
same,Tmax,[3]; [8],4 h
same,AUC(0-t),"[3]; female, 10 mg/kg/day, female, oral 10 mg/kg/day, Day 1, read-out: AUC0-24 h",77.7 µM·h
same,Cmax,[3]; [9],8.8 µM
same,Tmax,[3]; [9],8 h
same,AUC(0-t),"[3]; female, 10 mg/kg/day, female, oral 10 mg/kg/day, Day 21, read-out: AUC0-24 h",144 µM·h
same,Cmax,[3]; [10],6.17 µM
same,Tmax,[3]; [10],8 h
same,AUC(0-t),"[3]; female, 20 mg/kg/day, female, oral 20 mg/kg/day, Day 1, read-out: AUC0-24 h",101 µM·h
same,Cmax,[3]; [11],10.3 µM
same,Tmax,[3]; [11],8 h
same,AUC(0-t),"[3]; female, 20 mg/kg/day, female, oral 20 mg/kg/day, Day 21, read-out: AUC0-24 h",179 µM·h
same,Cmax,[3]; [12],0.97 µM
same,Tmax,[3]; [12],8 h
same,AUC(0-t),"[3]; male, 1 mg/kg/day, male, oral 1 mg/kg/day, Day 1, read-out: AUC0-24 h",12.5 µM·h
same,Cmax,[3]; [13],1.62 µM
same,Tmax,[3]; [13],8 h
same,AUC(0-t),"[3]; male, 1 mg/kg/day, male, oral 1 mg/kg/day, Day 21, read-out: AUC0-24 h",22.4 µM·h
same,Cmax,[3]; [14],1.88 µM
same,Tmax,[3]; [14],8 h
same,AUC(0-t),"[3]; male, 3 mg/kg/day, male, oral 3 mg/kg/day, Day 1, read-out: AUC0-24 h",23.1 µM·h
same,Cmax,[3]; [15],3.5 µM
same,Tmax,[3]; [15],8 h
same,AUC(0-t),"[3]; male, 3 mg/kg/day, male, oral 3 mg/kg/day, Day 21, read-out: AUC0-24 h",50.1 µM·h
same,Cmax,[3]; [16],2.96 µM
same,Tmax,[3]; [16],4 h
same,AUC(0-t),"[3]; male, 10 mg/kg/day, male, oral 10 mg/kg/day, Day 1, read-out: AUC0-24 h",47.4 µM·h
same,Cmax,[3]; [17],6.87 µM
same,Tmax,[3]; [17],8 h
same,AUC(0-t),"[3]; male, 10 mg/kg/day, male, oral 10 mg/kg/day, Day 21, read-out: AUC0-24 h",110 µM·h
same,Cmax,[3]; [18],4.24 µM
same,Tmax,[3]; [18],8 h
same,AUC(0-t),"[3]; male, 20 mg/kg/day, male, oral 20 mg/kg/day, Day 1, read-out: AUC0-24 h",76.6 µM·h
same,Cmax,[3]; [19],7.34 µM
same,Tmax,[3]; [19],8 h
same,AUC(0-t),"[3]; male, 20 mg/kg/day, male, oral 20 mg/kg/day, Day 21, read-out: AUC0-24 h",123 µM·h
